The results in this text go back to the NIST ThermoML archive (doi:10.1021/je300568h).

What is called vapor or sublimation pressure is the pressure of vapour in equilibrium with the condensed phase.

± gives the expanded uncertainty stated by the source.

The conditions of the data set: Liquid, Ebulliometric method (Recirculating still).

Consider `CCCCCCCCN(C)C` [N,N-dimethyl-1-octanamine], for which the “vapor or sublimation pressure” value is, setting by setting: (420.2 K) 29.84 ± 0.74 kPa; (436.7 K) 49.84 ± 0.89 kPa; (448.2 K) 69.83 ± 1.2 kPa; (457.9 K) 89.83 ± 1.3 kPa.

With `CCCCN(C)C` [N,N-dimethylbutanamine], the “vapor or sublimation pressure” value reads like this: (330.9 K) 29.84 ± 0.86 kPa; (345 K) 49.84 ± 0.99 kPa; (355.1 K) 69.83 ± 1.3 kPa; (363.2 K) 89.83 ± 1.6 kPa; (366.7 K) 99.83 ± 1.7 kPa.
